Patent US20260200926A1, “TREM2 MODULATORS” (Muna Therapeutics ApS, priority 2022, published 2026)

Biological target: T1, Human TREM2 (Homo sapiens, UniProt Q9NZC2)
T1 construct: expressed in transfected cells
Assay: Human TREM2 activity: cellular phosphorylation of Syk (AlphaLISA SureFire Ultra p-SYK) in HEK293/DAP12+TREM2 stable cell line
Type: cell-based
Conditions: for Emax: HEK293, maximal response relative to reference agonist example 1B (remaining examples), read-out: Emax; for EC50: phospho-Syk AlphaLISA signal, HEK293/DAP12+TREM2 cells, concentration giving 50% of maximal response, read-out: EC50
Method in brief: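 HEK293 cells stably co-expressing human TREM2 and DAP12 were seeded at 10,000 cells/well and used 20–24 h later. Compounds were tested at 8 concentrations (top 100 μM, 1:6 steps, 0.5% DMSO) for 30 min at 37 °C. Syk phosphorylation at Tyr525/526 was read in lysates by AlphaLISA SureFire Ultra.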

T1 sequence (Q9NZC2 19-230): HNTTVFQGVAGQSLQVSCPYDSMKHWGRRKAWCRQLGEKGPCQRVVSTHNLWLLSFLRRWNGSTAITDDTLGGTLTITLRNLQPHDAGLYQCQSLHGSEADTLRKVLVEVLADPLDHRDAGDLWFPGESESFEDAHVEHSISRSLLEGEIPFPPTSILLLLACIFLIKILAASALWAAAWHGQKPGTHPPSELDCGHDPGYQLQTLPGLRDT
T1 sequence (O43914 22-113 partner): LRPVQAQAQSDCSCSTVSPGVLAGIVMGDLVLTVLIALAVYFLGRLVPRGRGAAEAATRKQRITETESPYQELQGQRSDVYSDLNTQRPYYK

Row | Compound | Emax | EC50
1 | Cc1cc(C2CN(c3nc(-c4ccc(Cl)cc4F)c4nc(C)n(C)c(=O)c4n3)CCO2)ccn1 (stereo not drawn) [Example 3, 8-(4-chloro-2-fluorophenyl)-2,3-dimethyl-6-(2-(2-methylpyridin-4-yl)morpholino)pyrimido[5,4-d]pyrimidin-4 (3H)-one] | 75 to 110% | 1 to 10 nM
2 | Cc1nc2c(-c3ccc(C(F)(F)F)cc3F)nc(N3CCO[C@H](c4cnn(C)c4)C3)cc2c(=O)n1C (single isomer, unassigned) [Example 126B] | < 75% | 100 to 1000 nM
3 | Cc1nc2c(-c3ccc(C(F)(F)F)cc3F)nc([C@@H]3CCO[C@H](c4cnn(C5CC5)c4)C3)cc2c(=O)n1C (single isomer, unassigned) [Example 153A] | > 110% | 1 to 10 nM
4 | COCCn1c(C)nc2c(-c3ccc(Cl)cc3F)nc(N3CCOC(c4cnn(C)c4)C3)nc2c1=O (stereo not drawn) [Example 61, 8-(4-chloro-2-fluorophenyl)-3-(2-methoxyethyl)-2-methyl-6-(2-(1-methyl-1H-pyrazol-4-yl)morpholino)pyrimido[5,4-d]pyrimidin-4(3H)-one] | < 75% | 10 to 100 nM
5 | COCCN1CCN(c2nc(-c3ccc(Cl)cc3F)c3nc(C)n(C)c(=O)c3n2)CC1c1cnn(C)c1 (stereo not drawn) [Example 34, 8-(4-chloro-2-fluorophenyl)-6-(4-(2-methoxyethyl)-3-(1-methyl-1H-pyrazol-4-yl)piperazin-1-yl)-2,3-dimethylpyrimido[5,4-d]pyrimidin-4(3H)-one] | < 75% | 100 to 1000 nM
6 | Cn1c(C(F)(F)F)nc2c(-c3ccc(F)cc3F)nc([C@@H]3CCO[C@H](c4cnn(C5CC5)c4)C3)cc2c1=O (single isomer, unassigned) [Example 197A] | < 75% | 10 to 100 nM
7 | Cc1nc2c(-c3ccc(C(F)(F)F)nc3)nc(N3CCC(F)(F)[C@H](c4cnn(C)c4)C3)nc2c(=O)n1C (single isomer, unassigned) [Example 92] | < 75% | 10 to 100 nM
8 | Cc1cc([C@@H]2CN(c3nc(-c4ccc(F)cc4F)c4nc(C)n(C)c(=O)c4n3)CC(F)(F)O2)ccn1 (single isomer, unassigned) [Example 169A] | 75 to 110% | < 1 nM
9 | Cc1nc2c(-c3ccc(Cl)cc3F)nc(N3CCOC(c4cnn(C5CN(C)C5)c4)C3)nc2c(=O)n1C (stereo not drawn) [Example 42, 8-(4-chloro-2-fluorophenyl)-2,3-dimethyl-6-(2-(1-(1-methylazetidin-3-yl)-1H-pyrazol-4-yl)morpholino)pyrimido[5,4-d]pyrimidin-4 (3H)-one] | < 75% | 10 to 100 nM
10 | Cn1c(C(F)(F)F)nc2c(-c3ccc(F)cc3F)nc(C3CCOC(c4cnn(C5CC5)c4)C3)c(F)c2c1=O (stereo not drawn) [Example 167, 6-(2-(1-cyclopropyl-1H-pyrazol-4-yl)tetrahydro-2H-pyran-4-yl)-8-(2,4-difluorophenyl)-5-fluoro-3-methyl-2-(trifluoromethyl) pyrido[3,4-d]pyrimidin-4 (3H)-one] | < 75% | 100 to 1000 nM
11 | Cc1nc2c(-c3ccc(F)cc3F)nc(N3CCO[C@H](c4cnn(C)c4)C3)cc2c(=O)n1C (single isomer, unassigned) [Example 129B] | < 75% | 10 to 100 nM
12 | Cn1c(C(F)(F)F)nc2c(-c3cc(F)c(F)cc3F)nc([C@@H]3CCO[C@H](c4cnn(C5CC5)c4)C3)nc2c1=O (single isomer, unassigned) [Example 186A] | 75 to 110% | 1 to 10 nM
13 | Cc1nc2c(C3CCC(C)CC3)nc(N3CCOC(c4cnn(C)c4)C3)nc2c(=O)n1C (single isomer, unassigned) [Example 71A] | 75 to 110% | 10 to 100 nM
14 | Cc1nc2c(-c3ccc(F)cc3C#N)nc(N3C[C@@H](c4cnn(C5CC5)c4)O[C@@H](C)C3)cc2c(=O)n1C (single isomer, unassigned) [Example 201A] | < 75% | > 1000 nM
15 | Cc1nc2c(-c3ccc(Cl)cc3F)nc(N3C[C@@H](c4cnn(C)c4)OC4(CC4)C3)c(F)c2c(=O)n1C (single isomer, unassigned) [Example 173A] | < 75% | 10 to 100 nM
16 | Cc1nc2c(-c3ccc(Cl)cc3F)nc(N3CC(Oc4cnn(C)c4)C3)nc2c(=O)n1C [Example 16, 8-(4-chloro-2-fluorophenyl)-2,3-dimethyl-6-(3-((1-methyl-1H-pyrazol-4-yl)oxy)azetidin-1-yl)pyrimido[5,4-d]pyrimidin-4 (3H)-one] | 75 to 110% | 100 to 1000 nM
17 | Cc1nc2c(-c3ccc(Cl)cc3F)nc(N3CCO[C@@H](c4cnn(C)c4)C3)cc2c(=O)n1C (single isomer, unassigned) [Example 125A] | 75 to 110% | 10 to 100 nM
18 | Cc1nc2c(-c3ccc(C(F)(F)F)cc3F)cc([C@@H]3CCO[C@H](c4cnn(C5CC5)c4)C3)cc2c(=O)n1C (single isomer, unassigned) [Example 118A] | 75 to 110% | 10 to 100 nM
19 | Cc1nc2c(-c3ccc(Cl)cc3F)nc(N3CCOC(c4cnn(C)n4)C3)nc2c(=O)n1C (stereo not drawn) [Example 91, 8-(4-chloro-2-fluorophenyl)-2,3-dimethyl-6-(2-(2-methyl-2H-1,2,3-triazol-4-yl)morpholino)pyrimido[5,4-d]pyrimidin-4 (3H)-one] | 75 to 110% | 1 to 10 nM
20 | Cc1cc([C@H]2CN(c3cc4c(=O)n(C)c(C)nc4c(-c4ccc(C(F)(F)F)nc4)n3)CCO2)ccn1 (single isomer, unassigned) [Example 138B] | < 75% | 100 to 1000 nM
21 | Cc1cc([C@H]2CN(c3nc(-c4cc(F)c(F)cc4F)c4nc(C(F)(F)F)n(C)c(=O)c4n3)CCO2)ccn1 (single isomer, unassigned) [Example 155B] | 75 to 110% | 10 to 100 nM
22 | Cc1nc2c(-c3ccc(F)cc3F)nc(N3C[C@H](c4cnn(C)c4)OC(C)(C)C3)nc2c(=O)n1C (single isomer, unassigned) [Example 121B] | < 75% | > 1000 nM
23 | Cc1nc2c(-c3ccc(Cl)cc3F)nc(N3C[C@H](c4cnn(C)c4)OC(F)(F)C3)nc2c(=O)n1C (single isomer, unassigned) [Example 149B] | < 75% | 10 to 100 nM
24 | Cc1nc2c(-c3ccc(Cl)cc3F)nc(N3CC(COc4cnn(C)c4)C3)nc2c(=O)n1C [Example 15, 8-(4-chloro-2-fluorophenyl)-2,3-dimethyl-6-(3-(((1-methyl-1H-pyrazol-4-yl)oxy)methyl)azetidin-1-yl)pyrimido[5,4-d]pyrimidin-4 (3H)-one] | < 75% | > 1000 nM
25 | Cc1cc([C@H]2C[C@H](c3nc(-c4ccc(Cl)cc4F)c4nc(C)n(C)c(=O)c4n3)CCO2)ccn1 (single isomer, unassigned) [Example 95] | < 75% | 100 to 1000 nM
26 | Cc1nc2c(-c3ccc(Cl)cc3F)nc(N3C[C@@H](c4cnn(C)c4)OC4(CCC4)C3)cc2c(=O)n1C (single isomer, unassigned) [Example 151A] | 75 to 110% | 1 to 10 nM
27 | C[C@@H]1CN(c2nc(-c3ccc(F)cc3F)c3nc(C(F)(F)F)n(C)c(=O)c3n2)C[C@H](c2cnn(C3CC3)c2)O1 (single isomer, unassigned) [Example 183B] | 75 to 110% | < 1 nM
